# Results taken from publication PMC12603070, “A high-throughput screening approach to discover potential colorectal cancer chemotherapeutics: repurposing drugs to identify novel disruptors of 14-3-3 proteins” (Cell Death & Disease, 2025).
# Counter-ions that a name gives are not always drawn. Like-named read-outs stand apart in the source and are kept apart here.
# Tests used:
# [1] = biological target: T1, 14-3-3ζ:BAD-112-136F interactions (Homo sapiens, UniProt P63104); assay: BRET sensor screen for disruption of 14-3-3ζ-Rluc8:BAD-112-136F-mCitrine in living NIH-3T3 cells; format: cell-based, murine; design: inhibition: dose or concentration left out as unconfirmed; BRET reduction on NIH-3T3: unit not given here; settings: for inhibition at 20 µM / inhibition: NIH3T3, 3 h
# T1 construct: expressed in transfected cells; host or cells: NIH-3T3 fibroblasts, bi-directional pBI-CMV1 plasmid
# T1 sequence (P63104 1-245): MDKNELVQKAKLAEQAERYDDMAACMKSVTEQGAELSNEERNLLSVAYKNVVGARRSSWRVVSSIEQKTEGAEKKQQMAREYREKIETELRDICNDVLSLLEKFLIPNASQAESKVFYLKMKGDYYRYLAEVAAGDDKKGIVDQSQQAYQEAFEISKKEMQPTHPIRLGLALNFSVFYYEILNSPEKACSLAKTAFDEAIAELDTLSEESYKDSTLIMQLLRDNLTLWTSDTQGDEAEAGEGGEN
# Procedure: The Z’-score, which evaluates the robustness of an HTS assay readout, was calculated according to standard protocols. For the HTS, 384-well plates were coated with 100 μg/mL poly-L-ornithine (Sigma, Missouri, United States; #P3655) overnight at 37 °C, followed by rinsing with sterilized water. NIH-3T3 cells were transfected with the BRET sensor two days prior to experimentation, followed by replating onto the pre-coated 384-well plates at a density of 20,000 cells/well. After 24 h of incubation at 37 °C, growth media was replaced by Krebs buffer (pH 7.4).
# [2] = tested on: NIH-3T3 cells; assay: Hoechst/propidium iodide cell death assay in NIH-3T3; format: cell-based; settings: for cytotoxicity at 20 µM: Mus musculus, NIH3T3, 24 h
# Text: (§1) A high-content imaging system (PerkinElmer; Operetta CLS), was used to quantify cell death and apoptosis by calculating the number of propidium iodide-positive cells relative to Hoechst-positive cells, and the number of Annexin V-positive cells relative to Hoechst-positive cells, respectively.
# [3] = tested on: HT-29 cells; assay: Hoechst/propidium iodide cell death assay in HT-29; format: cell-based, human; settings: for cytotoxicity at 20 µM: Homo sapiens
# Text: as §1
# [4] = NIH-3T3 cells, hits from the primary screen, read-out: BRET reduction on NIH-3T3
# [5] = NIH-3T3 expressing BRET sensor, 20 µM, 3 h, read-out: BRET reduction on NIH-3T3
# [6] = 20 µM, 24 h, read-out: Percentage of cell death % 24h NIH3t3
# [7] = HT-29, 24 h, 20 µM, 24 h, read-out: Percentage of cell death % 24h HT-29
# [8] = HT-29, 48 h, HT-29, 48h, 20 μM, read-out: Percentage of cell death % 48h, HT-29
# [9] = NIH-3T3 cells, hits from the primary screen
# [10] = NIH-3T3 expressing BRET sensor, 20 µM, 3 h
Compound,"inhibition at 20 µM ([1]; read-out: BRET reduction on NIH-3T3, NIH-3T3 cells, hits from the primary screen)","inhibition at 20 µM ([1]; read-out: BRET reduction on NIH-3T3, NIH-3T3 expressing BRET sensor, 20 µM, 3 h)","cytotoxicity at 20 µM ([2]; read-out: Percentage of cell death % 24h NIH3t3, 20 µM, 24 h)","Percentage of cell death % 48h, NIH3T3 [2]","cytotoxicity at 20 µM ([3]; HT-29, 24 h, read-out: Percentage of cell death % 24h HT-29, 20 µM, 24 h)","cytotoxicity at 20 µM ([3]; HT-29, 48 h, read-out: Percentage of cell death % 48h, HT-29, HT-29, 48h, 20 μM)","inhibition [1, 4]","inhibition at 20 µM [1, 5]","cytotoxicity at 20 µM [2, 6]","cytotoxicity at 20 µM [3, 7]","cytotoxicity at 20 µM [3, 8]","BRET reduction on NIH-3T3 [1, 9]","BRET reduction on NIH-3T3 [1, 10]","Percentage of cell death % 24h NIH3t3 ([2]; 20 µM, 24 h)","Percentage of cell death % 24h HT-29 ([3]; 20 µM, 24 h)","Percentage of cell death % 48h, HT-29 ([3]; HT-29, 48h, 20 μM)","%Cell death HT-29 ([3]; HT-29, time not given)"
"Cn1cncc1[C@@](N)(c1ccc(Cl)cc1)c1ccc2c(c1)c(-c1cccc(Cl)c1)cc(=O)n2C [Tipifarnib (Zarnestra), Tipifarnib]",43.9%,43.9%,65.9%,52.702%,3.09%,12.9%,,,,,,,,,,,
Clc1ccc(C(Cn2ccnc2)OCc2ccc(Sc3ccccc3)cc2)c(Cl)c1 (stereo not shown) [Fenticonazole Nitrate],,,,1.538%,,,31.7%,31.7%,0.773%,0.786%,1.58%,,,,,,
Cc1cc(Nc2ncc(Cl)c(Nc3ccccc3S(=O)(=O)C(C)C)n2)c(OC(C)C)cc1C1CCNCC1 [LDK378],,,,75.6563%,,,46.5%,46.5%,80.9%,92.1%,89.8%,,,,,,
NC(=O)N1CCC(CC(=O)N2CCC([C@H]3c4ncc(Br)cc4CCc4cc(Cl)cc(Br)c43)CC2)CC1 [Lonafarnib],,,,40.7575%,,,40.6%,40.6%,36.3%,1.12%,1.7%,,,,,,
CC(C)=CCC/C(C)=C/CC/C(C)=C/CSc1ccccc1C(=O)O [Salirasib],,,,1.2519%,,,45.5%,45.5%,3.71%,0.693%,1.28%,,,,,,
CCc1c(Cl)c(O)c(Cl)c(O)c1C(=O)O[C@H]1[C@H](O)[C@H](OC)[C@H](OC/C2=C\C=C\C[C@H](O)/C(C)=C/[C@H](CC)[C@@H](O[C@@H]3OC(C)(C)[C@@H](OC(=O)C(C)C)[C@H](O)[C@@H]3O)/C(C)=C/C(C)=C/C[C@@H]([C@@H](C)O)OC2=O)O[C@@H]1C [Fidaxomicin],,,,1.5823%,,,32.5%,32.5%,1.82%,2.31%,52.8%,,,,,,
O=C1c2c(O)ccc(O)c2C(=O)c2c(NCCNCCO)ccc(NCCNCCO)c21 [Mitoxantrone HCl],,,,0%,,,25.5%,25.5%,0.018%,0%,0.0037%,,,,,,
COc1cc(C(=O)NS(=O)(=O)c2ccccc2C)ccc1Cc1cn(C)c2ccc(NC(=O)OC3CCCC3)cc12 [Zafirlukast],,,,0.2485%,,,30.4%,30.4%,0.402%,0.343%,0.917%,,,,,,
CC/C(=C(\c1ccccc1)c1ccc(OCCN(C)C)cc1)c1ccccc1 [Tamoxifen],,,,78.8324%,,,,,,,,54.2923,54.2923,81.9489%,3.365%,61.8661%,63.3%
C#C[C@]1(O)CC[C@H]2[C@@H]3CCC4=CCCC[C@@H]4[C@H]3C(=C)C[C@@]21CC [Desogestrel],,,,8.012%,,,40.6%,40.6%,16.1%,1.59%,2.12%,,,,,,
CCOC(=O)C1=C(C)NC(C)=C(C(=O)OC)C1c1cccc(Cl)c1Cl (stereo not shown) [Felodipine],,,,43.2531%,,,27.6%,27.6%,6.69%,3.81%,6.71%,,,,,,
Cc1c(C)c2c(c(C)c1O)CCC(C)(COc1ccc(CC3SC(=O)NC3=O)cc1)O2 (stereo not shown) [Troglitazone],,,,0.3187%,,,30.9%,30.9%,0.791%,0.272%,0.925%,,,,,,
"C=C[C@@H]1C[C@]1(NC(=O)[C@@H]1C[C@@H](Oc2ncc(OC)c3ccc(Cl)cc23)CN1C(=O)[C@@H](NC(=O)OC(C)(C)C)C(C)(C)C)C(=O)NS(=O)(=O)C1CC1 [Asunaprevir (BMS-650032), Asunaprevir]",,,,2.12%,,,41.4%,41.4%,3.04%,1.15%,3.86%,,,,,,
CN(C)CCCN1c2ccccc2CCc2ccc(Cl)cc21 [Clomipramine HCl],,,,8.7601%,,,27%,27%,7.72%,0.662%,2.3%,,,,,,
"COc1cc2c(Oc3ccc4[nH]c(C)cc4c3F)ncnc2cc1OCCCN1CCCC1 [Cediranib (AZD217), Cediranib]",,,,55.3041%,,,39.9%,39.9%,76.9%,11.9%,83.5%,,,,,,
C[C@H](CCC(=O)O)[C@H]1CC[C@H]2[C@@H]3[C@H](O)C[C@@H]4C[C@H](O)CC[C@]4(C)[C@H]3CC[C@]12C [Chenodeoxycholic Acid],,,,0.2284%,,,31.3%,31.3%,0.372%,1.21%,2.27%,,,,,,
Vitamin B12,,,,0.1179%,,,,,,,,36.7374,36.7374,0.2976%,0.4615%,1.059%,
Clc1ccc(COC(Cn2ccnc2)c2ccc(Cl)cc2Cl)c(Cl)c1 (stereo not shown) [Miconazole Nitrate],,,,6.033%,,,,,,,,52.8386,52.8386,12.1676%,5.26%,9.591%,
CCOc1nc2cccc(C(=O)OC(C)OC(=O)OC3CCCCC3)c2n1Cc1ccc(-c2ccccc2-c2nnn[nH]2)cc1 (stereo not shown) [Candesartan Cilexetil],,,,2.478%,,,44.9%,44.9%,12.2%,1.16%,1.91%,,,,,,
